Consider 26 compounds from patent US12624044B2, “SMARCA degraders and uses thereof” (Kymera Therapeutics, Inc., priority 2019, dated 2026).

The target in this test is SMARCA2 (Homo sapiens, UniProt P51531). In words: MSD SMARCA2 degradation in NCI-H1299 cell line (24 h). In kind it is cell-based. Also on record: HC: NCI-H1299 cells treated with DMSO; host or cells: NCI-H1299. The note with it: for Dmax: NCI-H1299, NCI-H1299 cells; for DC50: NCI-H1299 cells, read-out: SMARCA2 MSD H1299 degradation 24 h: External Abs-DC50. The protocol:
Example 32. MSD SMARCA2 Degradation in […] Cell Line
Cell Culture: Cells were cultured in exponential growth phase.
Compound Preparation and Treatment: NCI-H1299 cells were seeded into the 96-well plate at 4.0*10^4 cells per 100 ul per well. Incubate the plate in the incubator overnight. The next day, compounds were diluted to designed stock concentration by TECAN, then perform a 3 fold, 9-point dilution via transferring 15 uL compound into 30 μL DMSO using Apricot. 200 nL diluted compound from compound source plate were transferred into the 96-intermediate plate as designated by using Echo550, followed with 100 ul culture medium to make the 2× compound solution. Cell plate were changed with 80 ul of fresh culture medium and 80 ul of 2× compound solution was added into the well to achieve the final designed concentration. Cell plate was then shaken at 720 rpm for 5 min and incubated for 24 hours in the incubator.
Sample Preparation: Media was aspirated from the cultures and the plate was washed with PBS twice. 60 ul of pre-chilled PIPA lysis buffer (Boston BioProducts BP-115D) with protease inhibitor were directly added into the well to lyze the cells for 20 minutes at 4° C. Cell lysates were collected.
MSD Procedure: The MSD plate was coated with 40 ul cell lysate and incubated at 4° C. overnight. The next day, the MSD coated bare plate was washed 3 times with 150 ul 1×TBST per well, blocked with 150 ul of blocking buffer per well, and shaken for 1 hour at RT, 600 rpm. Blocking buffer was 3% Blocker A in TBST. MSD plate was then washed 3 times with 150 ul 1×TBST per well and Primary Detection antibody (Rabbit anti-SMARCA2/BRM antibody, 100 μg/ml, ab223735) was added to a final [conc.]: 0.3 ug/ml, 25 ul/well and shaken for 1 hour at RT, 600 rpm. Antibody was prepared in Antibody Detection buffer (1% Blocker A in 1×TBST). The MSD plate was then washed 3 times with 150 ul 1×TBST per well. Secondary Detection antibody (SULFO-TAG anti-species antibody) was then added to a final [conc.]: 1 ug/ml, 25 ul/well, and shaken for 1 hour at RT, 600 rpm. Antibodies were prepared in Antibody Detection buffer (1% Blocker A in 1×TBST). MSD plate was washed 3 times with 150 ul 1×TBST per well and 2×MSD reading buffer was added, 150 ul per well, and diluted from 4× with water. MSD instrument was then read.
Data Analysis: The percentage of relative level of SMARCA2 level was calculated following equation below.
LC: A2780, SMARCA2 negative cells. HC: NCI-H1299 cells treated with DMSO.
The letter codes for the percentage of SMARCA2 degradation after 24 hours (Dmax %) include: A (>90% degradation), B (>70-90 degradation), C (50-70 degradation), and D (<50% degradation).

SMARCA2, sequence (P51531 whole entry): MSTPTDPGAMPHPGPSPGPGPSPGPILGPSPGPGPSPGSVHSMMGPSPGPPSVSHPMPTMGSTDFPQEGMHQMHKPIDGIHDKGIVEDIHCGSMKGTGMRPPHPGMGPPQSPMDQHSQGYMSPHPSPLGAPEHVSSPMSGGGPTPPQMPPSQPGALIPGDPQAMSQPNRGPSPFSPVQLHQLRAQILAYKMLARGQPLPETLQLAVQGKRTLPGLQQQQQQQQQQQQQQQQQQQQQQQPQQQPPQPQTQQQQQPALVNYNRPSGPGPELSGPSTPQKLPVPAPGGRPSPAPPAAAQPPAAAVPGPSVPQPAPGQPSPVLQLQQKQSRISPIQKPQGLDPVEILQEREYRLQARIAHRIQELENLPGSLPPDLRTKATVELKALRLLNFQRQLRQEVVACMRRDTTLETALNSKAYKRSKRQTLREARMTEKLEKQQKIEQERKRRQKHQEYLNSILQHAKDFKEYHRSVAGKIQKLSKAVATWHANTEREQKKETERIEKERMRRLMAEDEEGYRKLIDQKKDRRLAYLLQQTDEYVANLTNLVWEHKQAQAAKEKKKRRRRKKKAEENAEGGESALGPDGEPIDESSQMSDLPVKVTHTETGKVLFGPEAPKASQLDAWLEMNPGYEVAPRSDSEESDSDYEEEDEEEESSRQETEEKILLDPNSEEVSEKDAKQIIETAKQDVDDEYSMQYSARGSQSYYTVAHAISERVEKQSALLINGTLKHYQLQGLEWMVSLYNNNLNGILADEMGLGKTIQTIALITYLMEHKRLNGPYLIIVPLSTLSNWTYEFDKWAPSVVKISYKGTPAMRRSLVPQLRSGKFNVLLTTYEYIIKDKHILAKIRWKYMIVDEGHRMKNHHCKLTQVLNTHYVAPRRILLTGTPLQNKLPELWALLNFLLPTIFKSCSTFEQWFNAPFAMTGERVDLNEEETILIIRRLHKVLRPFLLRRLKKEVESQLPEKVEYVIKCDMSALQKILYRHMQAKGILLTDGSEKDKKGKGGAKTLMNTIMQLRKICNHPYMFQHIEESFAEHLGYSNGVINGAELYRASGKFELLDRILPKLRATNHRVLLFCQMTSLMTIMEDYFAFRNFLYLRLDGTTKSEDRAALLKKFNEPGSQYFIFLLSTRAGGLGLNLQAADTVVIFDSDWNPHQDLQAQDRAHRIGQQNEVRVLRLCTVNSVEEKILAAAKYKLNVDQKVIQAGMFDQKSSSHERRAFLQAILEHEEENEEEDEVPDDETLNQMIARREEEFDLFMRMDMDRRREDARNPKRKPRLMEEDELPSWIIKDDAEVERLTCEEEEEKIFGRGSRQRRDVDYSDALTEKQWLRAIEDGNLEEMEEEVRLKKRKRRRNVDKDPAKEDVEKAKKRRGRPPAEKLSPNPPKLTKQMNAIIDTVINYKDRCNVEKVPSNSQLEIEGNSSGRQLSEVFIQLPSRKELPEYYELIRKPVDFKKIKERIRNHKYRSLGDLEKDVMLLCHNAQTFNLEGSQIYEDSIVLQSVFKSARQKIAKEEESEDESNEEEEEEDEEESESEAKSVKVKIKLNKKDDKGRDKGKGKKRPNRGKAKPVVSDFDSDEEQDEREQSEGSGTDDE

Turning to `Cn1c(=O)n(C2CCC(=O)NC2=O)c2ccc(CCCOc3cccc(CN4CCN(c5cc(-c6ccccc6O)nnc5N)CC4)c3)cc21` (stereo not shown) [I-100], the Dmax is less than 50% and the 50% degradation concentration (DC50) was more than 1000 nM.

Regarding `CN(CCCc1ccc2c(c1)n(C)c(=O)n2C1CCC(=O)NC1=O)Cc1ccc(N2CCN(c3cc(-c4ccccc4O)nnc3N)CC2)cc1` (stereo not shown) [I-159, 3-(5-(3-((4-(4-(3-amino-6-(2-hydroxyphenyl)pyridazin-4-yl)piperazin-1-yl)benzyl)(methyl)amino)propyl)-3-methyl-2-oxo-2,3-dihydro-1H-benzo[d]imidazol-1-yl)piperidine-2,6-dione], the Dmax is less than 50% and the DC50 was more than 1000 nM.

As to `Cn1c(=O)n(C2CCC(=O)NC2=O)c2ccc(CCCOCCOc3cccc(N4C[C@H]5C[C@@H]4CN5/C=C/C(=O)c4ccccc4O)n3)cc21` (stereo partly drawn) [I-31, 3-[5-[3-[2-[[6-[(1R,4R)-5-[(E)-3-(2-hydroxyphenyl)-3-oxo-prop-1-enyl]-2,5-diazabicyclo[2.2.1]heptan-2-yl]-2-pyridyl]oxy]ethoxy]propyl]-3-methyl-2-oxo-benzimidazol-1-yl]piperidine-2,6-dione], the DC50 is more than 1000 nM.

For the compound `CN[C@@H](C)C(=O)N[C@H](C(=O)N1Cc2cc(OCCOCCOCCNC(=O)CCCOc3cccc(N4C[C@H]5C[C@@H]4CN5/C=C/C(=O)c4ccccc4O)n3)ccc2C[C@H]1C(=O)N[C@@H]1CCCc2ccccc21)C(C)(C)C` [I-200], the DC50 was more than 1000 nM.

On to `Cn1c(=O)n(C2CCC(=O)NC2=O)c2ccc(CCCCCCCc3cnc(N4C5CCC4CN(c4cc(-c6ccccc6O)nnc4N)C5)nc3)cc21` (stereo not shown) [I-88], for which the greatest degradation seen (Dmax) is more than 90% and the DC50 is less than 100 nM.

Take `Cn1c(=O)n(C2CCC(=O)NC2=O)c2ccc(CCCN3CCO[C@@H](CNCc4ccc(N5CCN(c6cc(-c7ccccc7O)nnc6N)CC5)cc4)C3)cc21` (stereo partly shown) [I-120]: the Dmax was 50 to 70% and the DC50 is 501 to 1000 nM.

For the compound `O=C(CCCCCCCCOc1ccnc(N2C[C@H]3C[C@@H]2CN3/C=C/C(=O)c2ccccc2O)c1)NCCOCCOCCOCCOCCNc1cccc2c1C(=O)N(C1CCC(=O)NC1=O)C2=O` (stereo partly shown) [I-18], the DC50 was more than 1000 nM.

Turning to `Cn1c(=O)n(C2CCC(=O)NC2=O)c2cccc(CCCCCOc3cccc(CN4CCN(c5cc(-c6ccccc6O)nnc5N)CC4)c3)c21` (stereo not shown) [I-97], the Dmax was 50 to 70% and the DC50 was in the range of 100 to 500 nM.

For `Cn1c(=O)n(C2CCC(=O)NC2=O)c2ccc(CN3CC[C@@H](OCCCN4CCN(Cc5ccc(-c6cc(-c7ccccc7O)nnc6N)cc5)CC4)C3)cc21` (stereo partly shown) [I-157], the Dmax was in the range of 70 to 90% and the DC50 is 100 to 500 nM.

For `O=C1CCC(N2C(=O)c3cccc(OCCCCc4cn(Cc5cccc(N6C[C@H]7C[C@@H]6CN7/C=C/C(=O)c6ccccc6O)n5)nn4)c3C2=O)C(=O)N1` (stereo partly shown) [I-37], the Dmax was more than 90% and the DC50 was 501 to 1000 nM.

For `Cn1c(=O)n(C2CCC(=O)NC2=O)c2ccc(CCCOCCOCCNC(=O)CCCCCCCCOc3ccnc(N4C[C@H]5C[C@@H]4CN5/C=C/C(=O)c4ccccc4O)c3)cc21` (stereo partly shown) [I-24], the DC50 is more than 1000 nM.

For `CN1C(=O)CCC(N2C(=O)c3cccc(OCCCCc4cn(Cc5cccc(N6C[C@H]7C[C@@H]6CN7/C=C/C(=O)c6ccccc6O)n5)nn4)c3C2=O)C1=O` (stereo partly shown) [I-41], the DC50 is more than 1000 nM.

For the compound `Cn1c(=O)n(C2CCC(=O)NC2=O)c2ccc(C#CCCc3cn(Cc4cccc(N5C[C@H]6C[C@@H]5CN6/C=C/C(=O)c5ccccc5O)n4)nn3)cc21` (stereo partly shown) [I-59], the Dmax was less than 50% and the 50% degradation concentration (DC50) was more than 1000 nM.

With `Cn1c(=O)n(C2CCC(=O)NC2=O)c2ccc(C#CCCCCc3cn(Cc4cccc(N5C[C@H]6C[C@@H]5CN6/C=C/C(=O)c5ccccc5O)n4)nn3)cc21` (stereo partly shown) [I-61], the maximal degradation (Dmax) was less than 50% and the DC50 was more than 1000 nM.

`Cn1c(=O)n(C2CCC(=O)NC2=O)c2cccc(CCCOc3ccc(CN4CCN(c5cc(-c6ccccc6O)nnc5N)CC4)cc3)c21` (stereo not shown) [I-90]: the Dmax was 50 to 70% and the DC50 is more than 1000 nM.

On to `Cn1c(=O)n(C2CCC(=O)NC2=O)c2cccc(CCCCCCCN3CCC(n4cc(-c5cc(-c6ccccc6O)nnc5N)cn4)CC3)c21` (stereo not shown) [I-176], for which the greatest degradation seen (Dmax) fell in the range of 70 to 90% and the DC50 was less than 100 nM.

As for `Cc1ncsc1-c1ccc(CNC(=O)[C@@H]2C[C@@H](O)CN2C(=O)[C@@H](NC(=O)COCCOCCOCCNC(=O)CCCCCCCCOc2ccnc(N3C[C@H]4C[C@@H]3CN4/C=C/C(=O)c3ccccc3O)c2)C(C)(C)C)cc1` [I-220], the DC50 was more than 1000 nM.

On to `Cn1c(=O)n(C2CCC(=O)NC2=O)c2ccc(CCCOc3ccc(CN4CCN(c5cc(-c6ccccc6O)nnc5N)CC4)cc3)cc21` (stereo not shown) [I-83, 3-(5-(3-(4-((4-(3-amino-6-(2-hydroxyphenyl)pyridazin-4-yl)piperazin-1-yl)methyl)phenoxy)propyl)-3-methyl-2-oxo-2,3-dihydro-1H-benzo[d]imidazol-1-yl)piperidine-2,6-dione], for which the Dmax is less than 50% and the 50% degradation concentration (DC50) is more than 1000 nM.

`Cn1c(=O)n(C2CCC(=O)NC2=O)c2ccc(CNCCCCCCc3cn(Cc4cccc(N5C[C@H]6C[C@@H]5CN6/C=C/C(=O)c5ccccc5O)n4)nn3)cc21` (stereo partly shown) [I-77]: the maximal degradation (Dmax) was less than 50% and the DC50 is more than 1000 nM.

Regarding `CN[C@@H](C)C(=O)N[C@H](C(=O)N1Cc2cc(OCCOCCOCCNC(=O)CCCCCCCCOc3ccnc(N4C[C@H]5C[C@@H]4CN5/C=C/C(=O)c4ccccc4O)c3)ccc2C[C@H]1C(=O)N[C@@H]1CCCc2ccccc21)C(C)(C)C` [I-205], the DC50 was more than 1000 nM.

With `CN(Cc1ccc(N2CCN(c3cc(-c4ccccc4O)nnc3N)CC2)cc1)CC1CCN(c2ccc3c(c2)n(C)c(=O)n3C2CCC(=O)NC2=O)CC1` (stereo not shown) [I-114], the Dmax fell in the range of 50 to 70% and the DC50 was less than 100 nM.

As for `Cn1c(=O)n(C2CCC(=O)NC2=O)c2cccc(CNCCc3cn(Cc4cccc(N5C[C@H]6C[C@@H]5CN6/C=C/C(=O)c5ccccc5O)n4)nn3)c21` (stereo partly drawn) [I-78, 3-[4-[[2-[1-[[6-[(1R,4R)-5-[(E)-3-(2-hydroxyphenyl)-3-oxo-prop-1-enyl]-2,5-diazabicyclo[2.2.1]heptan-2-yl]-2-pyridyl]methyl]triazol-4-yl]ethylamino]methyl]-3-methyl-2-oxo-benzimidazol-1-yl]piperidine-2,6-dione], the Dmax was less than 50% and the DC50 is more than 1000 nM.

As to `Cn1c(=O)n(C2CCC(=O)NC2=O)c2ccc(CCCOCCOCCNC(=O)CCCCCCCCOc3ccc(N4C[C@H]5C[C@@H]4CN5/C=C/C(=O)c4ccccc4O)nc3)cc21` (stereo partly shown) [I-8], the DC50 is more than 1000 nM.

With `Cn1c(=O)n(C2CCC(=O)NC2=O)c2ccc(CCCCOc3ccc(CN4CCN(c5cc(-c6ccccc6O)nnc5N)CC4)cc3)cc21` (stereo not shown) [I-84], the greatest degradation seen (Dmax) was less than 50% and the DC50 was more than 1000 nM.

Take `Cn1c(=O)n(C2CCC(=O)NC2=O)c2ccc(CCCOCCOCCNC(=O)CCCOc3cccc(N4C[C@H]5C[C@@H]4CN5/C=C/C(=O)c4ccccc4O)n3)cc21` (stereo partly shown) [I-25]: the half-maximal degradation concentration (DC50) is more than 1000 nM.

Consider `Cn1c(=O)n(C2CCC(=O)NC2=O)c2ccc(CCCCCCCN3CCC(n4cc(-c5cc(-c6ccccc6O)nnc5N)cn4)CC3)cc21` (stereo not shown) [I-184], for which the greatest degradation seen (Dmax) is less than 50% and the DC50 was more than 1000 nM.
